Source: ChEMBL document CHEMBL3885861, “Open TG-GATES”

Species: Rattus norvegicus
Test: Open TG-GATES - Regimen: Daily Repeat
Assay type: toxicity, organism-based, Sprague-Dawley
Parameters: regimen Daily Repeat, gender Male, age 6 weeks
Conditions: in vivo, po, 1000 mg/kg, route gavage, dose level High; for APTT / Bas / Eos / Fbg / Hb / Ht / Lym / MCH / MCHC / MCV / Mono / Neu / PT / Plat / RBC / Ret / WBC: tissue Blood; for KIDNEY_L / KIDNEY_R / KIDNEY_TOTAL: tissue Kidney; for LIVER: tissue Liver; for A/G / ALP / ALT / AST / BUN / CRE / Ca / Cl / DBIL / GLC / IP / K / LDH / Na / PL / RALB / TBIL / TC / TG / TP / gamma-GTP: tissue Plasma

Work on `COc1ccc(Cl)cc1C(=O)NCCc1ccc(S(=O)(=O)NC(=O)NC2CCCCC2)cc1` [GLYBURIDE] yielded a TERMINAL_BW (72 h, time 3 day) of 228 g, an APTT (72 h, time 3 day) of 20.6 s and a Bas (72 h, time 3 day) of 0%. The Eos (72 h, time 3 day) was 1.2%, the Fbg (72 h, time 3 day) was 221.4 mg/dL and the Hb (72 h, time 3 day) was 13.5 g/dL. The Ht (72 h, time 3 day) was 40.2%, the Lym (72 h, time 3 day) was 79.2% and the MCH (72 h, time 3 day) was 21.1 pg. For the same molecule, the MCHC (72 h, time 3 day) was 33.6%, the MCV (72 h, time 3 day) was 62.9 fL and the Mono (72 h, time 3 day) was 2.4%. The Neu (72 h, time 3 day) was 16.4%, the PT (72 h, time 3 day) was 12.3 s and the Plat (72 h, time 3 day) was 120.1 x10_4/uL. It also gave an RBC (72 h, time 3 day) of 640 x10_4/ul, a Ret (72 h, time 3 day) of 5.2% and a WBC (72 h, time 3 day) of 112.9 x10_2/uL. For the same molecule, the KIDNEY_L (72 h, time 3 day) was 1 g, the KIDNEY_R (72 h, time 3 day) was 1 g and the KIDNEY_TOTAL (72 h, time 3 day) was 2 g. The LIVER (72 h, time 3 day) was 11.1 g, the A/G (72 h, time 3 day) was 1.6 and the ALP (72 h, time 3 day) was 893.4 IU/L. For the same molecule, the ALT (72 h, time 3 day) was 36.4 IU/L, the AST (72 h, time 3 day) was 61.4 IU/L and the BUN (72 h, time 3 day) was 15.2 mg/dL. It also gave a CRE (72 h, time 3 day) of 0.4 mg/dL, a Ca (72 h, time 3 day) of 10.8 mg/dL and a Cl (72 h, time 3 day) of 102.8 meq/L. The DBIL (72 h, time 3 day) was 0.094 mg/dL, the GLC (72 h, time 3 day) was 200.2 mg/dL and the IP (72 h, time 3 day) was 6.7 mg/dL. The K (72 h, time 3 day) was 4 meq/L, the LDH (72 h, time 3 day) was 179.2 IU/L and the Na (72 h, time 3 day) was 140.6 meq/L. The PL (72 h, time 3 day) was 150.2 mg/dL, the RALB (72 h, time 3 day) was 3.4 g/dL and the TBIL (72 h, time 3 day) was 0.1 mg/dL. For the same molecule, the TC (72 h, time 3 day) was 74.4 mg/dL, the TG (72 h, time 3 day) was 93.4 mg/dL and the TP (72 h, time 3 day) was 5.5 g/dL. For the same molecule, the gamma-GTP (72 h, time 3 day) was 1 IU/L, the TERMINAL_BW ([…], time 7 day) was 260.9 g and the TERMINAL_BW ([…], time 14 day) was 308.1 g. The TERMINAL_BW ([…], time 28 day) was 392.8 g, the APTT ([…], time 7 day) was 19.8 s and the Bas ([…], time 7 day) was 0.2%. The Eos ([…], time 7 day) was 1%, the Fbg ([…], time 7 day) was 220 mg/dL and the Hb ([…], time 7 day) was 13.6 g/dL. It also gave a Ht ([…], time 7 day) of 40%, a Lym ([…], time 7 day) of 81% and an MCH ([…], time 7 day) of 20.7 pg. It also gave an MCHC ([…], time 7 day) of 34%, an MCV ([…], time 7 day) of 60.8 fL and a Mono ([…], time 7 day) of 2.2%. For the same molecule, the Neu ([…], time 7 day) was 15.2%, the PT ([…], time 7 day) was 12.4 s and the Plat ([…], time 7 day) was 129 x10_4/uL. For the same molecule, the RBC ([…], time 7 day) was 658.4 x10_4/ul, the Ret ([…], time 7 day) was 5.2% and the WBC ([…], time 7 day) was 109.6 x10_2/uL. The APTT ([…], time 14 day) was 20.5 s, the Bas ([…], time 14 day) was 0% and the Eos ([…], time 14 day) was 0.8%. The Fbg ([…], time 14 day) was 224.4 mg/dL, the Hb ([…], time 14 day) was 14 g/dL and the Ht ([…], time 14 day) was 40.6%. The Lym ([…], time 14 day) was 81%, the MCH ([…], time 14 day) was 20.7 pg and the MCHC ([…], time 14 day) was 34.6%. For the same molecule, the MCV ([…], time 14 day) was 59.9 fL, the Mono ([…], time 14 day) was 2.4% and the Neu ([…], time 14 day) was 15.2%. For the same molecule, the PT ([…], time 14 day) was 12.2 s, the Plat ([…], time 14 day) was 116.7 x10_4/uL and the RBC ([…], time 14 day) was 678.6 x10_4/ul. It also gave a Ret ([…], time 14 day) of 4.5%, a WBC ([…], time 14 day) of 129.3 x10_2/uL and an APTT ([…], time 28 day) of 20.5 s. The Bas ([…], time 28 day) was 0%, the Eos ([…], time 28 day) was 1% and the Fbg ([…], time 28 day) was 218.2 mg/dL. The Hb ([…], time 28 day) was 14.9 g/dL, the Ht ([…], time 28 day) was 42.8% and the Lym ([…], time 28 day) was 81.4%. The MCH ([…], time 28 day) was 19.5 pg, the MCHC ([…], time 28 day) was 34.8% and the MCV ([…], time 28 day) was 56 fL. For the same molecule, the Mono ([…], time 28 day) was 2.4%, the Neu ([…], time 28 day) was 14.4% and the PT ([…], time 28 day) was 12.3 s. For the same molecule, the Plat ([…], time 28 day) was 99 x10_4/uL, the RBC ([…], time 28 day) was 766.2 x10_4/ul and the Ret ([…], time 28 day) was 2.7%. The WBC ([…], time 28 day) was 123.6 x10_2/uL, the KIDNEY_L ([…], time 7 day) was 1.1 g and the KIDNEY_R ([…], time 7 day) was 1.1 g. The KIDNEY_TOTAL ([…], time 7 day) was 2.2 g, the KIDNEY_L ([…], time 14 day) was 1.2 g and the KIDNEY_R ([…], time 14 day) was 1.2 g. It also gave a KIDNEY_TOTAL ([…], time 14 day) of 2.4 g, a KIDNEY_L ([…], time 28 day) of 1.3 g and a KIDNEY_R ([…], time 28 day) of 1.4 g. For the same molecule, the KIDNEY_TOTAL ([…], time 28 day) was 2.7 g, the LIVER ([…], time 7 day) was 12.5 g and the LIVER ([…], time 14 day) was 13.8 g. For the same molecule, the LIVER ([…], time 28 day) was 16 g, the A/G ([…], time 7 day) was 1.4 and the ALP ([…], time 7 day) was 962.2 IU/L. For the same molecule, the ALT ([…], time 7 day) was 35 IU/L, the AST ([…], time 7 day) was 61.6 IU/L and the BUN ([…], time 7 day) was 16.2 mg/dL. The CRE ([…], time 7 day) was 0.4 mg/dL, the Ca ([…], time 7 day) was 10.8 mg/dL and the Cl ([…], time 7 day) was 102.6 meq/L. The DBIL ([…], time 7 day) was 0.1 mg/dL, the GLC ([…], time 7 day) was 212 mg/dL and the IP ([…], time 7 day) was 6.9 mg/dL. It also gave a K ([…], time 7 day) of 3.8 meq/L, an LDH ([…], time 7 day) of 169.4 IU/L and a Na ([…], time 7 day) of 140.8 meq/L. It also gave a PL ([…], time 7 day) of 151.4 mg/dL, an RALB ([…], time 7 day) of 3.3 g/dL and a TBIL ([…], time 7 day) of 0.2 mg/dL. The TC ([…], time 7 day) was 73 mg/dL, the TG ([…], time 7 day) was 123.6 mg/dL and the TP ([…], time 7 day) was 5.6 g/dL. The gamma-GTP ([…], time 7 day) was 1.4 IU/L, the A/G ([…], time 14 day) was 1.5 and the ALP ([…], time 14 day) was 801.6 IU/L. The ALT ([…], time 14 day) was 33.4 IU/L, the AST ([…], time 14 day) was 56.8 IU/L and the BUN ([…], time 14 day) was 14.6 mg/dL. The CRE ([…], time 14 day) was 0.5 mg/dL, the Ca ([…], time 14 day) was 10.6 mg/dL and the Cl ([…], time 14 day) was 102.8 meq/L. It also gave a DBIL ([…], time 14 day) of 0.1 mg/dL, a GLC ([…], time 14 day) of 174.6 mg/dL and an IP ([…], time 14 day) of 6.7 mg/dL. The K ([…], time 14 day) was 3.7 meq/L, the LDH ([…], time 14 day) was 115 IU/L and the Na ([…], time 14 day) was 141 meq/L. For the same molecule, the PL ([…], time 14 day) was 151 mg/dL, the RALB ([…], time 14 day) was 3.6 g/dL and the TBIL ([…], time 14 day) was 0.2 mg/dL. The TC ([…], time 14 day) was 72.4 mg/dL, the TG ([…], time 14 day) was 102.2 mg/dL and the TP ([…], time 14 day) was 5.9 g/dL. For the same molecule, the gamma-GTP ([…], time 14 day) was 1.4 IU/L, the A/G ([…], time 28 day) was 1.4 and the ALP ([…], time 28 day) was 552.4 IU/L. It also gave an ALT ([…], time 28 day) of 31.6 IU/L, an AST ([…], time 28 day) of 55.2 IU/L and a BUN ([…], time 28 day) of 16 mg/dL. The CRE ([…], time 28 day) was 0.5 mg/dL, the Ca ([…], time 28 day) was 10.3 mg/dL and the Cl ([…], time 28 day) was 103 meq/L. For the same molecule, the DBIL ([…], time 28 day) was 0.098 mg/dL, the GLC ([…], time 28 day) was 230.2 mg/dL and the IP ([…], time 28 day) was 6.5 mg/dL. For the same molecule, the K ([…], time 28 day) was 4.2 meq/L, the LDH ([…], time 28 day) was 131 IU/L and the Na ([…], time 28 day) was 141 meq/L. It also gave a PL ([…], time 28 day) of 153.2 mg/dL, an RALB ([…], time 28 day) of 3.5 g/dL and a TBIL ([…], time 28 day) of 0.2 mg/dL. For the same molecule, the TC ([…], time 28 day) was 75.6 mg/dL, the TG ([…], time 28 day) was 102 mg/dL and the TP ([…], time 28 day) was 6 g/dL. It also gave a gamma-GTP ([…], time 28 day) of 0.8 IU/L.
